According to patent US20100249112A1, “COMBINATION OF CHK AND PARP INHIBITORS FOR THE TREATMENT OF CANCERS” (ASTRAZENECA R&D, priority 2007, published 2010):
Like-named read-outs stand apart in the source and are kept apart here.

What was measured:
NCI-H460dnp53 cell line = assay: MTS cell viability assay, CHK-PARP combination, NCI-H460dnp53; format: cell-based
Method: (§1) Combination experiments were carried out to assess the ability of a CHK inhibitor, i.e., 5-(3-Fluoro-phenyl)-3-ureido-thiophene-2-carboxylic acid (S)-piperidin-3-ylamide, to sensitize cells to a PARP inhibitor, i.e., 4-[3-(4-Cyclopropanecarbonyl-piperazine-1-carbonyl)-4-fluoro-benzyl]-2H-phthalazin-1-one, using a cell viability endpoint.
(§2) The cell lines used in this study were SW620, which endogenously express mutant p53, and NCI-H460dominant negative p53 (NCI-H460dnp53), which are stably transfected to express dominant negative p53. Cells were seeded in 96-well plates on day 0 and treated with either a single drug or simultaneously with both drugs for 4 days beginning on Day 1.
(§3) For sequential addition, either the CHK inhibitor i.e., 5-(3-Fluoro-phenyl)-3-ureido-thiophene-2-carboxylic acid (S)-piperidin-3-ylamide, or the PARP inhibitor, i.e., 4-[3-(4-Cyclopropanecarbonyl-piperazine-1-carbonyl)-4-fluoro-benzyl]-2H-phthalazin-1-one, were added to cells for 24 hours beginning on Day 1, followed by addition of the other drug on Day 2, and exposure to both drugs continued for an additional 72 hours. […] Cells were dosed with the PARP inhibitor to generate a full dose-response curve. See Table 1 for an example of the drug concentrations used in each cell line.
(§4) Cell viability was measured on day 5 using an MTS colorimetric assay. Dose (concentration of drug used, uM) vs. Fraction unaffected (Fu) for PARP alone versus in combination were plotted. Replicate points for the constant concentration of the CHK inhibitor were also plotted. Data were analyzed by comparing the dose-response curve of the single agent to that for the combination.

SW 620 tumors = assay: SW 620 tumor growth inhibition in female nude mice; format: in vivo; settings: 3 weeks
Method: (§5) SW 620 tumors were staged in female nude mice as described in Chapter 31 “In vivo Tumor response End Points” by B. A. Teicher (see “Tumor Models in Cancer Research” edited by Beverly A. Teicher, p596. Published by Humana Press Inc. 2002). Treatment started when tumors reached ˜170 mm^3. There were 6 groups in this study with n=10/group. PARP inhibitor 4-[3-(4-Cyclopropanecarbonyl-piperazine-1-carbonyl)-4-fluoro-benzyl]-2H-phthalazin-1-one was given 5 times weekly at 50 mg/kg PO. CHK inhibitor 5-(3-Fluoro-phenyl)-3-ureido-thiophene-2-carboxylic acid (S)-piperidin-3-ylamide was given at 12.5 mg/kg and 25 mg/kg twice weekly IV. The combination groups received PARP inhibitor at 50 mg/kg (5 times a week) and, 2 hours later, the CHK inhibitor at 12.5 or 25 mg/kg (twice a week). Mice received 3 weeks of treatment. Overall, treatment was well tolerated except in one case where a mouse was receiving a CHK inhibitor in the 25 mg/kg group it was found dead prior to study endpoint.

SW620 cell line = assay: MTS cell viability assay, CHK-PARP combination, SW620; format: cell-based; settings: for IC50: Homo sapiens, SW-620, 96 h
Method: as §1, §2, §3, §4

[1] = Tolerability / max weight loss in the SW 620 tumor study; format: in vivo; settings: for Max weight loss: 3 weeks, female nude mice
Method: as §5

Structure (SMILES): O=C(c1cc(Cc2n[nH]c(=O)c3ccccc23)ccc1F)N1CCN(C(=O)C2CC2)CC1 [PARP inhibitor, 4-[3-(4-Cyclopropanecarbonyl-piperazine-1-carbonyl)-4-fluoro-benzyl]-2H-phthalazin-1-one]
- IC50 (NCI-H460dnp53 cell line; 96 h, constant CHK inhibitor 0.33 uM, simultaneous addition, 4 days, 3 experiments, read-out: IC50 of PARP inhibitor, CHK inhibitor + PARP inhibitor simultaneous): 1.9 µM
- IC50 (NCI-H460dnp53 cell line; 96 h, single agent, 4 days exposure, representative, 3 experiments, read-out: IC50 of PARP inhibitor alone): 17.6 µM
- IC50 (NCI-H460dnp53 cell line; CHK inhibitor 24 hours, then both drugs for additional 72 hours, 1 experiment, read-out: IC50 of PARP inhibitor, CHK inhibitor followed by PARP inhibitor): 4.1 µM
- IC50 (NCI-H460dnp53 cell line; PARP inhibitor 24 hours, then both drugs for additional 72 hours, 1 experiment, read-out: IC50 of PARP inhibitor, PARP inhibitor followed by CHK inhibitor): 3.6 µM
- Tumor Growth Inhibition % (SW 620 tumors; 50 mg/kg PO 5 times weekly, p > 0.1): 22%
- IC50 (SW620 cell line; constant CHK inhibitor 0.28 uM, simultaneous, 4 days, from 2 independent experiments, not directly comparable, read-out: IC50 of PARP inhibitor, CHK inhibitor + PARP inhibitor simultaneous): 5.8 µM
- IC50 (SW620 cell line; single agent, 4 days exposure, representative, 3 experiments, read-out: IC50 of PARP inhibitor alone): 19.4 µM

Structure (SMILES): NC(=O)Nc1cc(-c2cccc(F)c2)sc1C(=O)N[C@H]1CCCNC1 [CHK inhibitor, 5-(3-Fluoro-phenyl)-3-ureido-thiophene-2-carboxylic acid (S)-piperidin-3-ylamide]
- Activity of CHK inhibitor as a single agent at the constant concentration used (NCI-H460dnp53 cell line; 0.33 uM, determined previously): little or no activity
- Tumor Growth Inhibition % (SW 620 tumors; 12.5 mg/kg twice weekly IV, p > 0.05): 15%
- Tumor Growth Inhibition % (SW 620 tumors; 25 mg/kg twice weekly IV, p > 0.05): 22%
- Activity of CHK inhibitor as a single agent at the constant concentration used (SW620 cell line; 0.28 uM, determined previously): little or no activity
- Max weight loss ([1]; 12.5 mg/kg twice weekly IV): 2%
- Death prior to study endpoint ([1]; 25 mg/kg group, one mouse): found dead
- Max weight loss ([1]; 25 mg/kg twice weekly IV): 1%
